According to ChEMBL document CHEMBL5465560, “Selectivity Literature for EUbOPEN Chemogenomic Library” (2024):
Values belong to the molecule of their own block, whether it stands above or below them.

Assays:
[1] = target: Mitogen-activated protein kinase 3 (Homo sapiens, UniProt P27361); assay: Selectivity interaction (Rxn Biology Kinase assay) EUB0001632a MAPK3; settings: at 10 µM
[2] = target: Serine/threonine-protein kinase pim-1 (Homo sapiens, UniProt P11309); assay: Selectivity interaction (Kinase panel (Z-LYTE Assay)) EUB0001632a PIM1; settings: at 10 µM
[3] = target: Phosphatidylinositol 4,5-bisphosphate 3-kinase catalytic subunit beta isoform (Homo sapiens) (UniProt P42338); assay: Selectivity interaction (KinomeScan (DiscoverX)) EUB0000666a PIK3CB; settings: at 10 µM
[4] = tested on: Epidermal growth factor receptor (Homo sapiens), P00533 [UNDEFINED MUTATION]; assay: (§1) Selectivity interaction (KinomeScan (DiscoverX)) EUB0000607a EGFR; settings: at 10 µM
[5] = tested on: Epidermal growth factor receptor (Homo sapiens), P00533 [T790M]; assay: as §1; settings: at 10 µM
[6] = tested on: Epidermal growth factor receptor (Homo sapiens), P00533 [L861Q]; assay: as §1; settings: at 10 µM
[7] = tested on: Epidermal growth factor receptor (Homo sapiens), P00533 [L858R]; assay: as §1; settings: at 10 µM
[8] = tested on: Epidermal growth factor receptor (Homo sapiens), P00533 [G719S]; assay: as §1; settings: at 10 µM
[9] = target: Epidermal growth factor receptor (Homo sapiens, UniProt P00533); assay: as §1; settings: at 10 µM
[10] = tested on: Epidermal growth factor receptor (Homo sapiens), P00533 [G719C]; assay: as §1; settings: at 10 µM
[11] = tested on: Epidermal growth factor receptor (Homo sapiens), P00533 [L858R,T790M]; assay: as §1; settings: at 10 µM
[12] = target: Dual specificity mitogen-activated protein kinase kinase 1 (Homo sapiens, UniProt Q02750); assay: Selectivity interaction (Kinase panel (Invitrogen)) EUB0000639a MAP2K1; settings: at 200 nM
[13] = target: Activin receptor type-1-like (Homo sapiens) (UniProt P37023); assay: Selectivity interaction (Ambit KINOMEscan and KiNATiv profiling in Jurkat cells) EUB0000090b ACVRL1; type: cell-based; settings: at 1 µM
[14] = target: Serine/threonine-protein kinase PAK 6 (Homo sapiens) (UniProt Q9NQU5); assay: Selectivity interaction (KinomeScan (DiscoverX)) EUB0000655a PAK6; settings: at 10 µM
[15] = Selectivity interaction (KinomeScan (DiscoverX)) EUB0000045b CDPK1; settings: at 10 µM
[16] = target: T1, Bromodomain and PHD finger-containing protein 3 (Homo sapiens) (UniProt Q9ULD4); assay: Selectivity interaction (PWWP, WD40, and Tudor domain panel (DSLS measurements, literature)) EUB0000270b BRPF3
T1 sequence (whole entry): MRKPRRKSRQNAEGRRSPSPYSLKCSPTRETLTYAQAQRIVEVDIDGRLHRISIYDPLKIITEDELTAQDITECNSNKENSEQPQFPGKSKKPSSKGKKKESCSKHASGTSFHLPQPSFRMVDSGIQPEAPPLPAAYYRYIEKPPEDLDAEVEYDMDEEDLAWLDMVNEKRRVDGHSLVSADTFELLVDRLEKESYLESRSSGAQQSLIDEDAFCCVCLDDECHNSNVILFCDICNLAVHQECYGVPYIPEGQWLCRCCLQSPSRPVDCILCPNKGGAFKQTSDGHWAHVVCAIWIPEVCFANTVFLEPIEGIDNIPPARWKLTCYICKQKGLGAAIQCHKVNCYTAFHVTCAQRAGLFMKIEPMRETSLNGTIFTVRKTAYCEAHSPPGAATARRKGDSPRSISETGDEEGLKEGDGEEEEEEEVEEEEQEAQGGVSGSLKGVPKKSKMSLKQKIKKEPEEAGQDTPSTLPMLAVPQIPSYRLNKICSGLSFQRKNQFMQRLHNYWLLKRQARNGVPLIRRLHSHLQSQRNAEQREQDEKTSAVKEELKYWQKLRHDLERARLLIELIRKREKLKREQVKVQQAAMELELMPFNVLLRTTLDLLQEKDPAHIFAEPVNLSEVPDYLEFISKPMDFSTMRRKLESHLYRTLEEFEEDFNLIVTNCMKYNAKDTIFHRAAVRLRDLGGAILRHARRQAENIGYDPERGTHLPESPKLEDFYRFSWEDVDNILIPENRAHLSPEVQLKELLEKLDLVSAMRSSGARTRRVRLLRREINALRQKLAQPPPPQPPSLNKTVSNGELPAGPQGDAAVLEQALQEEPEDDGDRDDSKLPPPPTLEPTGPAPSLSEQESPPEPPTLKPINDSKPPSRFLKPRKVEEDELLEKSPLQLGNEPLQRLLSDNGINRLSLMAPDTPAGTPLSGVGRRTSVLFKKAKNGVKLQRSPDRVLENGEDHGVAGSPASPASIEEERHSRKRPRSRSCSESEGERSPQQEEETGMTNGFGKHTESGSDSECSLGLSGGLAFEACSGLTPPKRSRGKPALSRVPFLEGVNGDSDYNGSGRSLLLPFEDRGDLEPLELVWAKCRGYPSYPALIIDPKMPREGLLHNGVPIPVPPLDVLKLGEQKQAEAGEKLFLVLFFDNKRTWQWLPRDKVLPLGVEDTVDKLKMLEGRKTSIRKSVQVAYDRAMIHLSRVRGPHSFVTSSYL

[17] = target: T2, Serine/threonine-protein kinase TNNI3K (Homo sapiens) (UniProt Q59H18); assay: Selectivity interaction (KinomeScan (DiscoverX)) EUB0000229b TNNI3K; settings: at 10 µM
T2 sequence (whole entry): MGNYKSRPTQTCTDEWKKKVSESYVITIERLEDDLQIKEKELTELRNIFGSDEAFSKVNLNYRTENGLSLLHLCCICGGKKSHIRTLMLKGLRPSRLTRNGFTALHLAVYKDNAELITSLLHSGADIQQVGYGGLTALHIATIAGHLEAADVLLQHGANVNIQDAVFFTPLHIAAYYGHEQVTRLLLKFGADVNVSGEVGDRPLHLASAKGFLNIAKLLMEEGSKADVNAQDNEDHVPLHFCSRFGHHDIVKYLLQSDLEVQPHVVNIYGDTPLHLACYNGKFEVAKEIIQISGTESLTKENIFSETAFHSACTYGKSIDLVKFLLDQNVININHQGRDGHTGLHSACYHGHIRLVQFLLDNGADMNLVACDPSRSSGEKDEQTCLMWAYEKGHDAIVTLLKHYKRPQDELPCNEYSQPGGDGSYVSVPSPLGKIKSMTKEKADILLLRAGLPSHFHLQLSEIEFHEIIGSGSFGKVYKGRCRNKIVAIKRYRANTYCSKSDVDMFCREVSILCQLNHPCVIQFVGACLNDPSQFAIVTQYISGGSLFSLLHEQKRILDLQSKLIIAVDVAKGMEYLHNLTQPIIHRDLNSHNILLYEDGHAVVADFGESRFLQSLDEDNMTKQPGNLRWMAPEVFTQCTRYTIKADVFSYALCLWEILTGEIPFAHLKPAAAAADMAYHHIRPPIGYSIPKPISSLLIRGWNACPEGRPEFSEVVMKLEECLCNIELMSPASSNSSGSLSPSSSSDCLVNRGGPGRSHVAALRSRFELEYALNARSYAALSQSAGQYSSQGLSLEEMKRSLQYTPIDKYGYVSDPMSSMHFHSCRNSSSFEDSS

[18] = tested on: Epidermal growth factor receptor (Homo sapiens), P00533 [UNDEFINED MUTATION]; assay: Selectivity interaction (KinomeScan (DiscoverX)) EUB0000092b EGFR; settings: at 10 µM

Sequence of Epidermal growth factor receptor (Homo sapiens), P00533 [UNDEFINED MUTATION] (P00533 whole entry, looked up, stated change not applied): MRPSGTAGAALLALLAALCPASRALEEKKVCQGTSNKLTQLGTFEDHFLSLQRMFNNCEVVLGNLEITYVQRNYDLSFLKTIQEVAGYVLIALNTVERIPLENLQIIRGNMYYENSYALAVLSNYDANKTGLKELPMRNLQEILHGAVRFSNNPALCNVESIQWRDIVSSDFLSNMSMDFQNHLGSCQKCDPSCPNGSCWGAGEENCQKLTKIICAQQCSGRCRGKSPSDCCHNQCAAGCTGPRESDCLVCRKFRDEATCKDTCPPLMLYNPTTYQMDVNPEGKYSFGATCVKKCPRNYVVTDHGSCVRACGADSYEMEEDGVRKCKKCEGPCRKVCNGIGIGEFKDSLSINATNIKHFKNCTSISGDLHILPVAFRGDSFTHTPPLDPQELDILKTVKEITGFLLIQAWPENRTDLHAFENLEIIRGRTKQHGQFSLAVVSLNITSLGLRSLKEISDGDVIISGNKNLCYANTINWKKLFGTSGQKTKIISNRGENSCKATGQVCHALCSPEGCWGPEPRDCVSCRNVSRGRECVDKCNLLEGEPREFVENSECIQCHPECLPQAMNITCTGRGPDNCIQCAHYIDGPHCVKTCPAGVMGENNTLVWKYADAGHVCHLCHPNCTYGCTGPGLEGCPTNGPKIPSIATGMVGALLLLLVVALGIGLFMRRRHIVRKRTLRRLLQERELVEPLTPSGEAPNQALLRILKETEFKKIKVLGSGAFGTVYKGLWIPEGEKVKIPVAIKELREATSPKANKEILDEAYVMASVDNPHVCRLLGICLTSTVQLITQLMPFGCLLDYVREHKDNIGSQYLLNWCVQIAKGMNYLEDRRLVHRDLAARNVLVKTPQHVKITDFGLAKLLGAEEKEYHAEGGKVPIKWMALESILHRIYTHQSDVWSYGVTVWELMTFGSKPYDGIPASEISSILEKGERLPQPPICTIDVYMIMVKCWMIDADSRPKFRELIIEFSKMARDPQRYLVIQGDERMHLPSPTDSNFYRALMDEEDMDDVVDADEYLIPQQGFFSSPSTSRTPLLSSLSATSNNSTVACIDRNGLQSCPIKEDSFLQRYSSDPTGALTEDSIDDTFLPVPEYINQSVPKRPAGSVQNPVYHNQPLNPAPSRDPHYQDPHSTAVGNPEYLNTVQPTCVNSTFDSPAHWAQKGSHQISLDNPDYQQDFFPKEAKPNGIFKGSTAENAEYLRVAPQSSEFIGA
Sequence of Epidermal growth factor receptor (Homo sapiens), P00533 [L858R,T790M] (P00533 whole entry T790M/L858R, looked up): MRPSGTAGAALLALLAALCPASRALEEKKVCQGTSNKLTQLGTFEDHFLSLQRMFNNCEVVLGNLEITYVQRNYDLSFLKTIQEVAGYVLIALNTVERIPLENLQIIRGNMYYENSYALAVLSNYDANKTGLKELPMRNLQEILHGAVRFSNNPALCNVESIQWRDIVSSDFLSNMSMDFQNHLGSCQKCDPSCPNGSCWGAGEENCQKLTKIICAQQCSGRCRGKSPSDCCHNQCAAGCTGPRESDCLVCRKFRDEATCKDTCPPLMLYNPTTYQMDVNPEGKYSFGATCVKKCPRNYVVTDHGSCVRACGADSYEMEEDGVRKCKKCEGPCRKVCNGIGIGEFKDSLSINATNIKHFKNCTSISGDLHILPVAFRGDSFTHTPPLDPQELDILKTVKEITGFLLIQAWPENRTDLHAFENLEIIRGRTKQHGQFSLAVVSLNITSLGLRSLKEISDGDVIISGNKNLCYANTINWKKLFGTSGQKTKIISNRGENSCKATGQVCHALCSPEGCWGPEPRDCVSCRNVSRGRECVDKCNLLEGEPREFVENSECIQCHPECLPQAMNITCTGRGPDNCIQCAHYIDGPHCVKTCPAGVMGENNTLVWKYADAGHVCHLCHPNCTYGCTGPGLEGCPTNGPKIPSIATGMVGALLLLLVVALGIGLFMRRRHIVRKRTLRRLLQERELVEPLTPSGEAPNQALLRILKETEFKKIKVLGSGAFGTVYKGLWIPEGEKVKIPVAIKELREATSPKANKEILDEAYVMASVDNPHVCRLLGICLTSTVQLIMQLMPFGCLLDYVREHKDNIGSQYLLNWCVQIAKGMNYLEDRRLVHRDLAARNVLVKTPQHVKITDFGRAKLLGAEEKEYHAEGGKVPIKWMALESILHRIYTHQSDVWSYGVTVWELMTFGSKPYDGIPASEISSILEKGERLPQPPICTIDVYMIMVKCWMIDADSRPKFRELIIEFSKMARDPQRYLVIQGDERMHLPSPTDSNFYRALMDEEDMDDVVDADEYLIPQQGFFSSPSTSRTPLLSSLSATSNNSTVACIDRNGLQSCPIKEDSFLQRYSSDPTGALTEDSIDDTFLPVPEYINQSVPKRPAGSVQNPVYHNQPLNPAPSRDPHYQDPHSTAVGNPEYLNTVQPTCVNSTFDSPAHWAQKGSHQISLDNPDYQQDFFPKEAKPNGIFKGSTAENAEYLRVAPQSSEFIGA
Sequence of Epidermal growth factor receptor (Homo sapiens), P00533 [T790M] (P00533 whole entry T790M): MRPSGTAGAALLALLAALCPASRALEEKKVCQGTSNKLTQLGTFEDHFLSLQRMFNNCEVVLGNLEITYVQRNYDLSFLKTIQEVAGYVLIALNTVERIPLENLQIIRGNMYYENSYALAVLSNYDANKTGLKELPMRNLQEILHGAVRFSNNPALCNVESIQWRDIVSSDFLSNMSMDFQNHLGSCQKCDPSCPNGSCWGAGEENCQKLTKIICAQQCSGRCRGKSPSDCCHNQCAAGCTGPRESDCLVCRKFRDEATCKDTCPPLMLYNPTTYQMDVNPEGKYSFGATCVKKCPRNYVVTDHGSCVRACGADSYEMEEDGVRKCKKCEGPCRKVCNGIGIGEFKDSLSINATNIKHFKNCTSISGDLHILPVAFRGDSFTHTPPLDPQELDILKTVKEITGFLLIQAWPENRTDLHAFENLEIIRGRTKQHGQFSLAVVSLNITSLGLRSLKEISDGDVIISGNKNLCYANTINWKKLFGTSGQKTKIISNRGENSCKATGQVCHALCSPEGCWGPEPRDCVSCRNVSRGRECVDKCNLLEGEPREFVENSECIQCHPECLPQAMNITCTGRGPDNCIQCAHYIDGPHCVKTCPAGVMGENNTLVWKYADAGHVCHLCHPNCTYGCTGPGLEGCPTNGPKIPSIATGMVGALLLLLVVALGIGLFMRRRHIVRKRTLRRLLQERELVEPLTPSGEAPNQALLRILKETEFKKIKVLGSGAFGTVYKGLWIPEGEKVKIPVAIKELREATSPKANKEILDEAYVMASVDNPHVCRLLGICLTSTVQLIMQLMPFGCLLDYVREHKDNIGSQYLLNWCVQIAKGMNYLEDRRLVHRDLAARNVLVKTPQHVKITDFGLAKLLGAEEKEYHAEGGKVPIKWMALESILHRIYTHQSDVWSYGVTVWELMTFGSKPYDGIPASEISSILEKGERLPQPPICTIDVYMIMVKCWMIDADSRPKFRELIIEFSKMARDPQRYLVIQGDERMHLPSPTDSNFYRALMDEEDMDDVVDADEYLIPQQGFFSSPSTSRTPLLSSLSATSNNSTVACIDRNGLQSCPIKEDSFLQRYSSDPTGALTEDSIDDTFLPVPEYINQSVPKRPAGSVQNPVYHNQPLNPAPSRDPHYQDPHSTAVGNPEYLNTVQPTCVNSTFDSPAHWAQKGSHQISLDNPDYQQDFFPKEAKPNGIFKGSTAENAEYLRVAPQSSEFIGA
Sequence of Epidermal growth factor receptor (Homo sapiens), P00533 [G719S] (P00533 whole entry G719S): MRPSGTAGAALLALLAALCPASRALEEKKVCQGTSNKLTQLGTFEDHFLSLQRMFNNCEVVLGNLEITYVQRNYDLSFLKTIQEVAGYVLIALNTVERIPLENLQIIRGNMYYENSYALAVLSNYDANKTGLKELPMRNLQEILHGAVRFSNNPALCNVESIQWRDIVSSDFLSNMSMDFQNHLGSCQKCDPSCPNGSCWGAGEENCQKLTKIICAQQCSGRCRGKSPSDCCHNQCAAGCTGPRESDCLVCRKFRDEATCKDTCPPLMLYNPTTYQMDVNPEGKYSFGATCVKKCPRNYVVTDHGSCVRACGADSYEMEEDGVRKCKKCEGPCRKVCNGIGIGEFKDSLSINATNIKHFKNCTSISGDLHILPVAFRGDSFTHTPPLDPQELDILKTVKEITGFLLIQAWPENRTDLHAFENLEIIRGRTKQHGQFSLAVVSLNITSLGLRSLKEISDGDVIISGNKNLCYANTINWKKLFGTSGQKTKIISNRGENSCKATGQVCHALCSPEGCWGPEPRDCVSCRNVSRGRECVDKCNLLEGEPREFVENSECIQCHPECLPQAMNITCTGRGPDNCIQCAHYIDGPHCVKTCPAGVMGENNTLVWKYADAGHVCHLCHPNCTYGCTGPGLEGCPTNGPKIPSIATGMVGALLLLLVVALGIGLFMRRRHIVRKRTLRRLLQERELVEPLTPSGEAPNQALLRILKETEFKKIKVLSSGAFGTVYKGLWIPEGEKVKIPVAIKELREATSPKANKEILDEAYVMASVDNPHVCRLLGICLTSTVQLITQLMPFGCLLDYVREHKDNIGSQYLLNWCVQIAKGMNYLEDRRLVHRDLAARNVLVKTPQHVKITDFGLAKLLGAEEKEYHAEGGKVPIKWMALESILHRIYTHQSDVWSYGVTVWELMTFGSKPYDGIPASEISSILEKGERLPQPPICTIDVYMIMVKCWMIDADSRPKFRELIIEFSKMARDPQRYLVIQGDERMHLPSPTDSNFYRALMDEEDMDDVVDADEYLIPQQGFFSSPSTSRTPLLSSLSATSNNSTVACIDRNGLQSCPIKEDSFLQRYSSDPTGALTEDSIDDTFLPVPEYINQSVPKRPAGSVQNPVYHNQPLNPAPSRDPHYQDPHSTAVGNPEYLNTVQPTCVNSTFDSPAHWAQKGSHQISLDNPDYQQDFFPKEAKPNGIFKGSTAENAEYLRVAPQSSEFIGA

- % of inhibition [1]: -5.84%
- % of control [2]: -1.78%
Structure (SMILES): Cn1cc(-n2cnc3c(NCc4nc5cc(Cl)c(Cl)cc5[nH]4)nc(N4CCOCC4)nc32)cn1

Structure (SMILES): O=C(NOC[C@H](O)CO)c1ccc(F)c(F)c1Nc1ccc(I)cc1F
- % of control [3]: 100%

Structure (SMILES): CNC(=O)Nc1ccc(-c2nc(N3CC4CCC(C3)O4)c3cnn(C4CCC5(CC4)OCCO5)c3n2)cc1
- % of control [4]: 38%
- % of control [5]: 68%
- % of control [6]: 64%
- % of control [7]: 53%
- % of control [8]: 69%
- % of control [9]: 62%
- % of control [10]: 80%
- % of control [11]: 100%

- % of inhibition [12]: 9.31%
Structure (SMILES): CC[C@@H]1[C@H](F)C(=O)N[C@@H]1COc1nccc2cc(C(N)=O)c(OC)cc12 [ZIMLOVISERTIB]

Structure (SMILES): CN(C)C/C=C/C(=O)Nc1ccc(C(=O)N2CCCC(Nc3ncc(Cl)c(-c4c[nH]c5ccccc45)n3)C2)cc1 (stereo not drawn)
- % of control [13]: 79%

Structure (SMILES): CN(C)CCOc1ccc(-c2nc(-c3ccncc3)c(-c3ccc4c(c3)CC/C4=N\O)[nH]2)cc1
- % of control [14]: 100%

Structure (SMILES): C=CC(=O)Nc1cc(-n2c(=O)ccc3cnc4ccc(-c5ccc(NS(C)(=O)=O)cc5)cc4c32)ccc1C
- % of control [15]: 100%

- dTagg [16]: 0.3 K
Structure (SMILES): Cc1cc(CN)cc(C)c1-c1ncn(C)c1-c1cncn1C

Structure (SMILES): COc1cc(N(C)c2ccnc3ccc(C(F)(F)F)cc23)cc(OC)c1OC
- % binding [17]: 90%

Structure (SMILES): CCC(=O)N1CCN(c2ccc(-n3c(=O)ccc4cnc5ccc(-c6cnc7ccccc7c6)cc5c43)cc2C(F)(F)F)CC1
- % of control [18]: 80%
